“Also recorded” adds a separate entry of the source.
Assays:
[1] = system: IL-1β production by human PBMCs; experiment: IL-1β production by human PBMCs stimulated with PRR ligands with or without caspase-1 inhibitor (ELISA); format: cell-based; conditions: 24 h stimulation, 50 healthy donors
[2] = system: IL-1β production of PBMCs from gout patients; conditions: MSU or C16.0 alone; cited from earlier work

| Compound | induction of IL-1β production by human PBMCs [1] | release of IL-1β by the single component alone [2] |
| --- | --- | --- |
| CC(=O)N[C@H]1C(O)O[C@H](CO)[C@@H](O)[C@@H]1O[C@H](C)C(=O)N[C@@H](C)C(=O)N[C@H](CCC(=O)O)C(N)=O (mixture of isomers) [MDP, Muramyl dipeptide] | strong inducers; also recorded: weak inducer |  |
| CCCCCCCCCCCCCCCC(=O)O [C16.0, Palmitic acid] |  | neither does |
| Flagellin | weak inducer |  |
| Pam3cys | strong inducers |  |
